# From PubChem BioAssay (NCI)
#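 1) Cells in 96-well plates. 2) Compound, 48 h, 5 concentrations. 3) Linear interpolation between surrounding doses. 4) Unreached endpoint = highest concentration. The concentration for 50% growth inhibition is given as GI50. TGI is the concentration that stops growth completely.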
# Experiments:
# Experiment in all cases: growth of human tumour cells (NCI), 48 h
# 786-0 renal = system: 786-0 renal
# A498 renal = system: A498 renal
# A549 NSCLC = system: A549 NSCLC
# ACHN renal = system: ACHN renal
# CCRF-CEM leukemia = system: CCRF-CEM leukemia
# COLO 205 colon = system: COLO 205 colon
# DU-145 prostate = system: DU-145 prostate
# EKVX NSCLC = system: EKVX NSCLC
# HCC-2998 colon = system: HCC-2998 colon
# HCT-116 colon = system: HCT-116 colon
# HCT-15 colon = system: HCT-15 colon
# HL-60(TB) leukemia = system: HL-60(TB) leukemia
# HOP-62 NSCLC = system: HOP-62 NSCLC
# HOP-92 NSCLC = system: HOP-92 NSCLC
# HS 578T breast = system: HS 578T breast
# HT29 colon = system: HT29 colon
# IGROV1 ovarian = system: IGROV1 ovarian
# K-562 leukemia = system: K-562 leukemia
# KM12 colon = system: KM12 colon
# LOX IMVI melanoma = system: LOX IMVI melanoma
# M14 melanoma = system: M14 melanoma
# MALME-3M melanoma = system: MALME-3M melanoma
# MCF7 breast = system: MCF7 breast
# MDA-MB-231 breast = system: MDA-MB-231 breast
# MDA-MB-435 = system: MDA-MB-435
# MOLT-4 leukemia = system: MOLT-4 leukemia
# NCI-H226 lung = system: NCI-H226 lung
# NCI-H23 lung = system: NCI-H23 lung
# NCI-H460 lung = system: NCI-H460 lung
smiles,measurement,setting,value
CCCCCCCCCCCCCCCC(=O)NS(=O)(=O)OC[C@H]1O[C@@H](n2cnc3c(N)ncnc32)[C@H](O)[C@@H]1O,GI50,786-0 renal,< 49.1 nM
same,GI50,A498 renal,< 30 nM
same,TGI,A498 renal,< 48 nM
same,GI50,A549 NSCLC,1670 nM
same,TGI,A549 NSCLC,3820 nM
same,TGI,ACHN renal,1640 nM
same,TGI,CCRF-CEM leukemia,10600 nM
same,GI50,COLO 205 colon,< 15.7 nM
same,TGI,COLO 205 colon,< 23.8 nM
same,GI50,DU-145 prostate,< 46.2 nM
same,TGI,DU-145 prostate,3980 nM
same,GI50,EKVX NSCLC,271 nM
same,TGI,EKVX NSCLC,1740 nM
same,GI50,HCC-2998 colon,< 19.2 nM
same,TGI,HCC-2998 colon,< 38 nM
same,GI50,HCT-116 colon,71.9 nM
same,TGI,HCT-116 colon,1210 nM
same,GI50,HCT-15 colon,< 42.4 nM
same,TGI,HCT-15 colon,2110 nM
same,GI50,HL-60(TB) leukemia,454 nM
same,TGI,HL-60(TB) leukemia,4720 nM
same,GI50,HOP-62 NSCLC,< 19.8 nM
same,GI50,HOP-92 NSCLC,< 24 nM
same,GI50,HS 578T breast,982 nM
same,TGI,HS 578T breast,6040 nM
same,GI50,HT29 colon,40.2 nM
same,TGI,HT29 colon,342 nM
same,GI50,IGROV1 ovarian,37.1 nM
same,TGI,IGROV1 ovarian,199 nM
same,GI50,K-562 leukemia,1650 nM
same,TGI,K-562 leukemia,10000 nM
same,GI50,KM12 colon,< 42.1 nM
same,TGI,KM12 colon,3010 nM
same,GI50,LOX IMVI melanoma,394 nM
same,TGI,LOX IMVI melanoma,1580 nM
same,GI50,M14 melanoma,632 nM
same,TGI,M14 melanoma,2170 nM
same,GI50,MALME-3M melanoma,690 nM
same,TGI,MALME-3M melanoma,2220 nM
same,GI50,MCF7 breast,509 nM
same,TGI,MCF7 breast,9770 nM
same,GI50,MDA-MB-231 breast,381 nM
same,TGI,MDA-MB-231 breast,1710 nM
same,GI50,MDA-MB-435,210 nM
same,TGI,MDA-MB-435,551 nM
same,GI50,MOLT-4 leukemia,962 nM
same,TGI,MOLT-4 leukemia,8920 nM
same,GI50,NCI-H226 lung,< 24.5 nM
same,TGI,NCI-H226 lung,< 49.7 nM
same,GI50,NCI-H23 lung,321 nM
same,TGI,NCI-H23 lung,1250 nM
same,GI50,NCI-H460 lung,107 nM
